According to PubChem BioAssay (NCI):
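Compound exposure: 48 hours, 5 concentrations, 96-well plates. Here, GI50 denotes the concentration required for 50% inhibition of growth. At the TGI there is no net growth.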

How the values were obtained:
Assay in all cases: NCI tumour cell line growth inhibition, 48 h
[1] = system: SF-268 CNS
[2] = system: UACC-62 melanoma
[3] = system: HOP-62 NSCLC
[4] = system: LOX IMVI melanoma
[5] = system: HCT-116 colon
[6] = system: KM12 colon
[7] = system: SR leukemia
[8] = system: DU-145 prostate
[9] = system: SK-OV-3 ovarian
[10] = system: A549 NSCLC
[11] = system: CAKI-1 renal
[12] = system: SN12C renal
[13] = system: OVCAR-8 ovarian
[14] = system: NCI-H460 lung
[15] = system: SK-MEL-5 melanoma
[16] = system: MDA-MB-435
[17] = system: SK-MEL-28 melanoma
[18] = system: SW-620 colon
[19] = system: OVCAR-3 ovarian
[20] = system: MCF7 breast
[21] = system: UACC-257 melanoma
[22] = system: SK-MEL-2 melanoma
[23] = system: T-47D breast
[24] = system: K-562 leukemia
[25] = system: COLO 205 colon
[26] = system: ACHN renal
[27] = system: BT-549 breast
[28] = system: EKVX NSCLC
[29] = system: SF-295 CNS
[30] = system: HCT-15 colon
[31] = system: NCI/ADR-RES ovarian
[32] = system: SNB-19 CNS
[33] = system: MDA-MB-231 breast
[34] = system: HT29 colon
[35] = system: SNB-75 CNS
[36] = system: RXF 393 renal
[37] = system: IGROV1 ovarian
[38] = system: U251 CNS
[39] = system: MOLT-4 leukemia
[40] = system: OVCAR-5 ovarian
[41] = system: TK-10 renal
[42] = system: CCRF-CEM leukemia
[43] = system: NCI-H23 lung
[44] = system: M14 melanoma
[45] = system: 786-0 renal
[46] = system: NCI-H226 lung
[47] = system: UO-31 renal
[48] = system: A498 renal
[49] = system: OVCAR-4 ovarian
[50] = system: PC-3 prostate
[51] = system: HOP-92 NSCLC
[52] = system: MALME-3M melanoma
[53] = system: NCI-H522 lung
[54] = system: RPMI-8226 leukemia
[55] = system: HL-60(TB) leukemia
[56] = system: SF-539 CNS

SMILES: CC[C@]1(Cc2ccc(OC)c(OC)c2)[C@@H]2C[C@@H](C(=O)OC)ON2O[C@H](OC2CCCC2(c2ccccc2)c2ccccc2)[C@@H]1OC(C)=O (some centres undefined)
- TGI [1]: > 100000 nM
- TGI [2]: > 100000 nM
- TGI [3]: > 100000 nM
- TGI [4]: > 100000 nM
- TGI [5]: > 100000 nM
- TGI [6]: > 100000 nM
- TGI [7]: > 100000 nM
- TGI [8]: > 100000 nM
- TGI [9]: > 100000 nM
- TGI [10]: > 100000 nM
- TGI [11]: > 100000 nM
- TGI [12]: > 100000 nM
- TGI [13]: > 100000 nM
- TGI [14]: > 100000 nM
- TGI [15]: > 100000 nM
- TGI [16]: > 100000 nM
- TGI [17]: > 100000 nM
- TGI [18]: > 100000 nM
- TGI [19]: > 100000 nM
- TGI [20]: > 100000 nM
- TGI [21]: > 100000 nM
- TGI [22]: > 100000 nM
- TGI [23]: > 100000 nM
- TGI [24]: > 100000 nM
- TGI [25]: > 100000 nM
- TGI [26]: > 100000 nM
- TGI [27]: > 100000 nM
- TGI [28]: > 100000 nM
- TGI [29]: > 100000 nM
- TGI [30]: > 100000 nM
- TGI [31]: > 100000 nM
- TGI [32]: > 100000 nM
- TGI [33]: > 100000 nM
- TGI [34]: > 100000 nM
- TGI [35]: > 100000 nM
- TGI [36]: > 100000 nM
- TGI [37]: > 100000 nM
- TGI [38]: > 100000 nM
- TGI [39]: > 100000 nM
- TGI [40]: > 100000 nM
- TGI [41]: > 100000 nM
- TGI [42]: > 100000 nM
- TGI [43]: > 100000 nM
- TGI [44]: > 100000 nM
- TGI [45]: > 100000 nM
- TGI [46]: > 100000 nM
- TGI [47]: > 100000 nM

SMILES: O=[N+]([O-])c1ccc2scc3c4ccccc4nc-3c2c1
- GI50 [1]: 1480 nM
- TGI [1]: 2860 nM
- GI50 [48]: 509 nM
- TGI [48]: 2070 nM
- GI50 [2]: 1720 nM
- TGI [2]: 3340 nM
- GI50 [3]: 1780 nM
- TGI [3]: 3240 nM
- GI50 [4]: 1360 nM
- TGI [4]: > 100000 nM
- GI50 [5]: 1330 nM
- TGI [5]: 2940 nM
- GI50 [6]: 1590 nM
- TGI [6]: 2960 nM
- GI50 [8]: 1460 nM
- TGI [8]: 2770 nM
- GI50 [49]: 1670 nM
- TGI [49]: 3220 nM
- GI50 [9]: 1810 nM
- TGI [9]: 3230 nM
- GI50 [10]: 1740 nM
- TGI [10]: 3850 nM
- GI50 [50]: 1730 nM
- TGI [50]: 3500 nM
- GI50 [51]: 1660 nM
- TGI [51]: 3280 nM
- GI50 [15]: 1620 nM
- TGI [15]: 3030 nM
- GI50 [52]: 1150 nM
- TGI [52]: 2640 nM
- GI50 [53]: 342 nM
- TGI [53]: 1540 nM
- GI50 [16]: 1540 nM
- TGI [16]: 3940 nM
- GI50 [54]: 2120 nM
- TGI [54]: 6180 nM
- GI50 [17]: 1720 nM
- TGI [17]: 3140 nM
- GI50 [18]: 462 nM
- TGI [18]: 1700 nM
- GI50 [19]: 415 nM
- TGI [19]: 1630 nM
- GI50 [20]: 1290 nM
- TGI [20]: 3610 nM
- GI50 [21]: 1320 nM
- TGI [21]: 2720 nM
- GI50 [22]: 1660 nM
- TGI [22]: 3310 nM
- GI50 [23]: 784 nM
- TGI [23]: 3320 nM
- GI50 [55]: 1170 nM
- TGI [55]: 5260 nM
- GI50 [24]: 402 nM
- TGI [24]: > 100000 nM
- GI50 [25]: 1790 nM
- TGI [25]: 3520 nM
- GI50 [26]: 1500 nM
- TGI [26]: 2950 nM
- GI50 [27]: 1730 nM
- TGI [27]: 3180 nM
- GI50 [29]: 1780 nM
- TGI [29]: 3870 nM
- GI50 [32]: 1960 nM
- TGI [32]: 4080 nM
- GI50 [33]: 1650 nM
- TGI [33]: 3220 nM
- GI50 [34]: 1380 nM
- TGI [34]: 3030 nM
- GI50 [56]: 1800 nM
- TGI [56]: 3350 nM
- GI50 [35]: 1370 nM
- TGI [35]: 2660 nM
- GI50 [36]: 1430 nM
- TGI [36]: 2780 nM
- GI50 [38]: 600 nM
- TGI [38]: 2000 nM
- GI50 [40]: 1910 nM
- TGI [40]: 3750 nM
- GI50 [41]: 1080 nM
- TGI [41]: 2320 nM
- GI50 [42]: 611 nM
- TGI [42]: 5160 nM
- GI50 [43]: 1900 nM
- TGI [43]: 5050 nM
- GI50 [44]: 1850 nM
- TGI [44]: 3580 nM
- GI50 [45]: 1840 nM
- TGI [45]: 3290 nM
- GI50 [46]: 2220 nM
- TGI [46]: 6080 nM
- GI50 [47]: 1160 nM
- TGI [47]: 2510 nM
